Laboratory results as given in patent publication US20080206311A1, “Sucrase Activity Inhibitor, Glucoamylase Activity Inhibitor and Food and Feed Containing the Same” (MITSUI SUGAR CO., LTD., priority 2005, published 2008).

Tested on: small-intestinal enzyme liquid
Test: Decomposition of a saccharide alone (control solution) by small-intestinal enzyme liquid
Assay type: biochemical, rat
Details: 5% saccharide alone
Experimental: Palatinose (trade name: Palatinose IC, ex Shin Mitsui Sugar Co., Ltd.) (test sample) was used as a sample for investigating each enzyme activity inhibitory effect. Maltose and sucrose were used as substrates for maltase and sucrose, respectively. The test sample and the substrates were dissolved in 0.1 M phosphate buffer (pH 6.8) at the concentration shown in Table 1 below to prepare test solutions (Solutions 4 and 5). Also, the test sample or the substrates were dissolved in 0.1 M phosphate buffer (pH 6.8), respectively to at the concentration shown in Table 1 below to prepare control solutions (Solution 1 for the test sample and Solutions 2 and 3 for the substrates).
Two grams of rat small-intestinal acetone powder (ex Sigma Corporation) were dissolved in 20 ml of 0.1 M phosphate buffer (pH 6.8), left standing one day at 5° C., and subsequently subjected to centrifugal separation (8000 rpm×15 min.). The supernatant was filtered through a 0.8 μm membrane filter to obtain a small-intestinal enzyme liquid. This liquid contained a mixture of enzymes present in small intestine, such as sucrose, glucoamylase, maltase, and isomaltase.
Each 0.25 ml of the small-intestinal enzyme liquid was added to each 5 ml of Solutions 1 through 5 and placed in a water bath at 37° C. to allow them to react for 60 min. while shaken at 60 strokes/min. After the reaction, they were heated in a boiling water bath for 3 min. for inactivation of the enzymes.
The glucose concentration in each solution after the reaction was measured using the F-kit Glucose (ex Roche). A liberated glucose concentration (g/l) was calculated by subtracting the blank value (0.1 M phosphate buffer alone) and the concentration of glucose originally contained in the test sample from each glucose concentration measured.
The fructose concentration was measured using the F-kit Fructose (ex Roche). The liberated fructose concentration, g/l, was obtained by subtracting the blank value (0.1 M phosphate buffer alone) from the resultant fructose concentration.
The procedures in Example 1 were repeated with the exception that palatinit, palatinose or isomaltose was used as a test sample and lactose was used as a substrate. The test samples and the substrate were dissolved in 0.1 M phosphate buffer (pH 6.8) to attain the concentration shown in Table 5 to thereby prepare three test solutions. Besides, each of the test samples or the substrate was dissolved in 0.1 M phosphate buffer (pH 6.8) to attain the concentration shown in Table 5 to thereby prepare control solutions. Each 5 ml of the aforementioned test solutions and the control solutions was subjected to the enzymatic reaction according to the same procedures as in Example 1. The glucose concentration, the fructose concentration and the galactose concentration were measured. The galactose concentration was measured using F-kit Galactose (ex Roche). The liberated galactose concentration, g/l, was calculated by subtracting the blank value (0.1 M phosphate buffer alone) from the measured galactose concentration.

soluble starch
Liberated glucose concentration (Example 4): 4.657 g/L
Liberated glucose concentration (Example 6 / Test Example 5): 2.400 g/L

OC[C@H]1O[C@@H](O[C@H]2[C@H](O)[C@@H](O)C(O)O[C@@H]2CO)[C@H](O)[C@@H](O)[C@H]1O (stereo partly drawn) [lactose]
Liberated fructose concentration (Example 3 / Test Examples 2, 3): 0.00 g/L
Liberated glucose concentration (Example 3 / Test Examples 2, 3): 0.23 g/L
Liberated galactose concentration (Test Example 3): 0.16 g/L

OC[C@H]1O[C@H](O[C@H]2[C@H](O)[C@@H](O)[C@H](O)O[C@@H]2CO)[C@H](O)[C@@H](O)[C@@H]1O [maltose]
Liberated glucose concentration (37° C., 60 min, pH 6.8, Example 1 / Test Example 1): 4.956 ± 0.423 g/L
